Legend:
INS-1 cells [1] = experiment: Cellular insulin content of INS-1 cells (Rat Insulin RIA of lysate); assay type: cell-based; conditions: untransfected INS-1 cells, 20 μM, 24 hours; FIG. 16
Method: (§1) This potential role was examined with the rat INS-1 cell line, which intrinsically expresses Ihh and Dhh proteins (FIGS. 13 and 14). […] Insulin levels were measured with a Rat Insulin RIA Kit (LINCO Research, Inc., St. Louis, Mo.) using the protocol outlined by the manufacturer. […] After 24 hours of incubation, 500 μL aliquots of culture medium were removed and serially diluted for the assay. Culture medium that was not exposed to cells was tested as a negative control for the assay. In some experiments, transfected cells were assessed for insulin secretion rates. In these experiments, after incubation with lipofectamine and DNA, the transfected cells received fresh culture medium and 24-hour insulin secretion rates were assessed. Given that the cells intrinsically express hedgehog, the cells were also treated with cyclopamine in the absence of any transfection. […] Cells were then rinsed in phosphate buffered saline and lysed in 0.1N HCl in 100% ethanol at 4° C. The lysate was incubated overnight at−70° C. The thawed lysate was vortexed and subjected to brief centrifugation at 14,000 rpm. The resulting supernatant was dried under vacuum, resuspended in […] Assay buffer, and serially diluted for insulin measurements with the Rat Insulin RIA Kit.

rat insulin I promoter = experiment: Rat insulin I promoter luciferase reporter (-410 INS-luc) in transfected INS-1 cells; assay type: cell-based; conditions: absence of the Shh expression construct, dose-dependent, FIG. 19
Method: To determine whether hedgehog regulation of insulin production occurs at the transcriptional level, INS-1 cells were transiently transfected with 5-6 μg total DNA and 10 μL Lipofectamine according to the manufacturer's instructions (GIBCO BRL Life Technologies, Inc., Gaithersburg, Md.) with increasing concentrations of Shh expression vector pSHH in the presence of a rat insulin I promoter-reporter construct −410 INS-luc. […] The plasmid −410 INS-LUC consists of a fragment of the rat insulin I gene promoter that spans nucleotides −410 to +49 inserted into the pXP2 vector that includes firefly luciferase reporter sequences (Lu, M., et al, 1997, J. Biol. Chem.: 272:28349). […] For luciferase assays, cells were harvested 24 hours after transfection with 1× Reporter Lysis Buffer (Promega, Madison, Wis.). Luciferase assays were conducted with the Luciferase Assay System as outlined by the manufacturer (Promega, Madison, Wis.). Luciferase activities were normalized for extract protein concentrations as determined by the Bio-Rad Protein Assay (Bio-Rad Laboratories, Hercules, Calif.), a modified Bradford assay (Bradford, M., 1976, Anal. Biochem., 72:248).

[2] = test system: insulin mRNA in INS-1 cells; experiment: Northern blot of insulin mRNA levels in INS-1 cells; assay type: cell-based, rat; conditions: 20 μM, Northern RNA blots, FIG. 17
Method: For isolation of total RNA, cells were washed in phosphate buffered saline and lysed with Tri-Reagent (SIGMA, St-Louis, Mo.). Total cellular RNA was prepared according to the manufacturer's protocol. For each sample, 4 μg total RNA was separated by electrophoresis on a denaturing gel consisting of 1× MOPS, 1.2% agarose and 1% formaldehyde. Samples were transferred using standard methods (Ausubel et al., Short Protocols in Molecular Biology, Third Edition, John Wiley and Sons, Inc., 1995.) to nylon membranes (Hybond-N+, Amersham Pharmacia Biotech, Inc., Piscataway, N.J.) and crosslinked with ultraviolet light (UV Stratalinker 1800, Stratagene, La Jolla, Calif.). The membranes were prehybridized in Rapid-Hyb Buffer (Amersham Pharmacia Biotech, Inc.) prior to hybridization for 4 hours at 65° C. with radiolabeled probes. Insulin transcripts were probed with a 231 nucleotide fragment (spanning nucleotides 349 to 580 of the rat insulin I gene, Genbank acc. no. V01242) of rat insulin I cDNA. […] For quantitation, autoradiograms were scanned with a Computing Densitometer (Molecular Dynamics, Sunnyvale, Calif.) and individual band intensities were determined with ImageQuant software (Molecular Dynamics, Sunnyvale, Calif.). […]

INS-1 cells [3] = experiment: Insulin secretion by INS-1 cells into medium over 24 h (Rat Insulin RIA); assay type: cell-based; conditions: INS-1 cells transfected with pEV control and insulin promoter-reporter construct; 24 h exposure; increasing amounts; FIG. 15
Method: as §1

CC1=C2C[C@H]3[C@@H](CC=C4C[C@@H](O)CC[C@@]43C)[C@@H]2CC[C@]12O[C@@H]1C[C@H](C)CN[C@H]1[C@H]2C [cyclopamine]
reduction in cellular insulin content (INS-1 cells [1]): 40% | inhibition of basal insulin promoter activity (rat insulin I promoter): up to 90% | levels of insulin mRNA [2]: decrease in the levels of insulin mRNA | effect on insulin secretion (INS-1 cells [3]): increasingly inhibited insulin secretion

Reference: US7632812B2, “Methods to stimulate insulin production by pancreatic β-cells” (Massachusetts General Hospital, priority 1999, dated 2009)
